Measurements reported in the supplement of paper PMC10307832.

Key:
Assay in all cases: relative viability (nuclei count vs DMSO), 5 days (fraction); higher = more cells survive
[1] = compound: CC1=C(C(=NN1)C)CC2=C(C3=C(S2)N(C(=O)N(C3=O)C)CC(C)C)C(=O)N4C[C@@H](CO4)O + CCNC(=O)c1noc(-c2cc(C(C)C)c(O)cc2O)c1-c1ccc(CN2CCOCC2)cc1 [Luminespib] (partner 0.01 µM)
How it was run: (§1)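 After 5 days of treatment, lung cancer cells in 1536-well plates were fixed and stained in a single step (final 0.05% Triton X-100, 1% formaldehyde, 1 ug/ml Hoechst) and their nuclei counted on 4× images. Treatment had been applied by pin tool the day after seeding as one drug alone or as a fixed anchor-drug dose with five library-drug doses (not always all listed) in √10 steps. Relative viability is the nuclei count of treated wells divided by that of vehicle wells, and values are medians of duplicate plates.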

[2] = compound: CC1=C(C(=NN1)C)CC2=C(C3=C(S2)N(C(=O)N(C3=O)C)CC(C)C)C(=O)N4C[C@@H](CO4)O + C[C@@H](Oc1cc(-c2cnn(C3CCNCC3)c2)cnc1N)c1c(Cl)ccc(F)c1Cl [Crizotinib] (partner 1 µM)
How it was run: as §1

IDH-C35 + OSI-027 = compound: Cc1ccccc1C(C(=O)NC1CCCCC1)N(C(=O)Cn1ccnc1C)c1cccc(F)c1 [IDH-C35] + COc1cccc2cc(-c3nc([C@H]4CC[C@H](C(=O)O)CC4)n4ncnc(N)c34)[nH]c12 [OSI-027] (partner 0.5 µM)
How it was run: as §1

[3] = compound: CC1=C(C(=NN1)C)CC2=C(C3=C(S2)N(C(=O)N(C3=O)C)CC(C)C)C(=O)N4C[C@@H](CO4)O + Nc1nc2[nH]cc(CCc3ccc(C(=O)N[C@@H](CCC(=O)O)C(=O)O)cc3)c2c(=O)[nH]1 [Pemetrexed] (partner 0.2 µM)
How it was run: as §1

Cell Line | relative viability ([1]; first compound 0.0025 µM) | relative viability ([1]; first compound 0.007906 µM) | relative viability ([1]; first compound 0.025 µM) | relative viability ([1]; first compound 0.07906 µM) | relative viability ([1]; first compound 0.25 µM) | relative viability ([2]; first compound 0.0025 µM) | relative viability ([2]; first compound 0.007906 µM) | relative viability ([2]; first compound 0.025 µM) | relative viability ([2]; first compound 0.07906 µM) | relative viability ([2]; first compound 0.25 µM) | relative viability (IDH-C35 + OSI-027; first compound 0.08 µM) | relative viability (IDH-C35 + OSI-027; first compound 0.253 µM) | relative viability (IDH-C35 + OSI-027; first compound 0.8 µM) | relative viability (IDH-C35 + OSI-027; first compound 2.53 µM) | relative viability (IDH-C35 + OSI-027; first compound 8 µM) | relative viability ([3]; first compound 0.0025 µM) | relative viability ([3]; first compound 0.007906 µM) | relative viability ([3]; first compound 0.025 µM) | relative viability ([3]; first compound 0.07906 µM) | relative viability ([3]; first compound 0.25 µM)
NCI-H2347 | 0.563 | 0.371 | 0.447 | 0.362 | 0.246 | 0.834 | 0.813 | 0.801 | 0.621 | 0.875 | 0.467 | 0.48 | 0.477 | 0.324 | 0.369 | 0.434 | 0.438 | 0.41 | 0.378 | 0.383
NCI-H2405 | 0.778 | 0.849 |  | 0.706 | 0.684 | 0.91 | 0.805 | 0.727 | 0.748 | 0.805 | 0.651 | 0.651 | 0.622 | 0.567 | 0.621 | 1.15 | 1.22 | 1.03 | 1 | 0.795
NCI-H3122 | 0.088 | 0.101 | 0.0902 | 0.0646 | 0.11 | 0.281 | 0.26 | 0.276 | 0.259 | 0.299 | 1.03 | 1.04 | 0.929 | 0.917 | 0.948 | 0.196 | 0.202 | 0.185 | 0.187 | 0.216
PC-3 [JPC-3] | 0.801 | 0.601 | 0.699 | 0.773 | 0.786 | 1.02 | 0.898 | 0.93 | 0.861 | 1.08 | 0.767 | 0.74 | 0.747 | 0.809 | 0.747 | 1.11 | 1.03 | 1.01 | 1.27 | 0.834
PC-14 | 0.119 | 0.179 | 0.286 | 0.276 | 0.196 | 0.91 | 0.904 | 0.881 | 0.932 | 0.954 | 0.956 | 0.798 | 0.755 | 0.837 | 0.711 | 0.158 | 0.126 | 0.155 | 0.122 | 0.121
RERF-LC-KJ | 1.25 | 1.36 | 1.22 | 1.16 | 1.32 | 0.862 | 0.819 | 0.823 | 0.865 | 0.88 | 0.562 | 0.631 | 0.643 | 0.614 | 0.597 | 0.46 | 0.468 | 0.463 | 0.511 | 0.503
SK-LU-1 | 0.187 | 0.177 | 0.182 | 0.183 | 0.182 | 0.654 | 0.6 | 0.653 | 0.693 | 0.643 | 0.377 | 0.336 | 0.347 | 0.357 | 0.326 | 0.96 | 0.719 | 0.736 | 0.745 | 0.846
SK-MES-1 | 1.01 | 0.782 | 0.969 | 0.846 | 0.888 | 1.13 | 0.995 | 1.08 | 0.944 | 0.966 | 0.634 | 0.598 | 0.604 | 0.597 | 0.508 | 1.08 | 0.988 | 0.857 | 0.967 | 0.988
SW 1573 | 0.32 | 0.322 | 0.443 | 0.213 | 0.332 | 0.955 | 0.866 | 0.798 | 0.786 | 0.812 | 0.779 | 0.798 | 0.648 | 0.763 | 0.753 | 0.759 | 1.05 | 0.773 | 0.853 | 0.981
UMC-11 | 1.06 | 1.33 | 0.959 | 1.08 | 1.13 | 0.647 | 0.346 | 0.441 | 0.628 | 0.657 | 0.444 | 0.47 | 0.473 | 0.482 | 0.463 | 0.791 | 0.86 | 0.779 | 0.761 | 0.789
